Molecules are shown by their SMILES. Structures can show the parent of a compound that is named as a salt.

human σ1 receptor, sequence (Q99720 whole entry): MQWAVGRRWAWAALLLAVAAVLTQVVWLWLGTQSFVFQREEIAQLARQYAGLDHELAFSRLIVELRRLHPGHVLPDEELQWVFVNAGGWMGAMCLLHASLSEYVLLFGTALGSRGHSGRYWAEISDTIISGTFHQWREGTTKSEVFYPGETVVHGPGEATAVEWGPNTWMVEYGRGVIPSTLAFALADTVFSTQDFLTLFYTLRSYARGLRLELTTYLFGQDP

One assay concerns the target human σ1 receptor (Homo sapiens, UniProt Q99720). Kind of assay: biochemical. Also noted: μ and σ1 dual binding: key to the marks not given beside the values. The class given is binding.
Conditions: not given
As to `CC1OC2(CCN(CCc3ccccc3)CC2)CN(c2ccccn2)C1=O.Cl` (stereo not drawn) [Example 196, 2-methyl-9-phenethyl-4-(pyridin-2-yl)-1-oxa-4,9-diazaspiro[5.5]undecan-3-one hydrochloride], the “μ and σ1 dual binding” value was “++”.

On to `CCOC(=O)c1cccc(N2CC3(CCN(CCc4ccccc4)CC3)OC(C)C2=O)c1.Cl` (stereo not drawn) [Example 197, ethyl 3-(2-methyl-3-oxo-9-phenethyl-1-oxa-4,9-diazaspiro[5.5]undecan-4-yl)benzoate hydrochloride], for which the “μ and σ1 dual binding” value was “++”.

As for `CC1OC2(CCN(CCc3ccccc3)CC2)CN(c2cccc(C#N)c2)C1=O.Cl` (stereo not drawn) [Example 198, 3-(2-methyl-3-oxo-9-phenethyl-1-oxa-4,9-diazaspiro[5.5]undecan-4-yl)benzonitrile hydrochloride], the “μ and σ1 dual binding” value is given as “++”.

Regarding `CC1OC2(CCN(CCc3ccccc3)CC2)CN(c2nn(C)c3ccccc23)C1=O.Cl` (stereo not drawn) [Example 200, 2-methyl-4-(1-methyl-1H-indazol-3-yl)-9-phenethyl-1-oxa-4,9-diazaspiro[5.5]undecan-3-one hydrochloride], the “μ and σ1 dual binding” value is “++”.

On to `CC1OC2(CCN(CCc3ccccc3)CC2)CN(c2ccc3cnn(C)c3c2)C1=O.Cl` (stereo not drawn) [Example 201, 2-methyl-4-(1-methyl-1H-indazol-6-yl)-9-phenethyl-1-oxa-4,9-diazaspiro[5.5]undecan-3-one hydrochloride], for which the “μ and σ1 dual binding” value is “++”.

For `CC1OC2(CCN(CCc3ccccc3)CC2)CN(c2ccc3c(c2)OCO3)C1=O` (stereo not drawn) [Example 202, 4-(benzo[d][1,3]dioxol-5-yl)-2-methyl-9-phenethyl-1-oxa-4,9-diazaspiro[5.5]undecan-3-one hydrochloride], the Ki is below 500 nM.

On to `CC1OC2(CCN(CCc3ccccc3)CC2)CN(c2ccc3ncsc3c2)C1=O` (stereo not drawn) [Example 203, 4-(benzo[d]thiazol-6-yl)-2-methyl-9-phenethyl-1-oxa-4,9-diazaspiro[5.5]undecan-3-one], for which the “μ and σ1 dual binding” value is “++”.

`CC1OC2(CCN(CCc3ccccc3)CC2)CN(c2nc3ccccc3s2)C1=O.Cl` (stereo not drawn) [Example 204, 4-(benzo[d]thiazol-2-yl)-2-methyl-9-phenethyl-1-oxa-4,9-diazaspiro[5.5]undecan-3-one hydrochloride]: the “μ and σ1 dual binding” value is recorded as “++”.

For the compound `CC1OC2(CCN(CCc3ccccc3)CC2)CN(c2ccncc2)C1=O.Cl` (stereo not drawn) [Example 205, 2-methyl-9-phenethyl-4-(pyridin-4-yl)-1-oxa-4,9-diazaspiro[5.5]undecan-3-one hydrochloride], the “μ and σ1 dual binding” value was “++”.

The compound `COc1cccc(N2CC3(CCN(CCc4ccccc4)CC3)OC(C)C2=O)n1` (stereo not drawn) [Example 211, 4-(6-methoxypyridin-2-yl)-2-methyl-9-phenethyl-1-oxa-4,9-diazaspiro[5.5]undecan-3-one hydrochloride] yielded a Ki below 500 nM.

For the compound `CC1OC2(CCN(CCc3ccccc3)CC2)CN(c2cccnc2F)C1=O` (stereo not drawn) [Example 213, 4-(2-fluoropyridin-3-yl)-2-methyl-9-phenethyl-1-oxa-4,9-diazaspiro[5.5]undecan-3-one], the Ki was below 100 nM.

Compound `CC1OC2(CCN(CCc3ccc(N)cc3)CC2)CN(c2ccccc2)C1=O` (stereo not drawn) [Example 228, 9-(4-aminophenethyl)-2-methyl-4-phenyl-1-oxa-4,9-diazaspiro[5.5]undecan-3-one] gave a Ki below 500 nM.

`CC1OC2(CCN(CCc3ccccc3N)CC2)CN(c2ccccc2)C1=O` (stereo not drawn) [Example 229, 9-(2-aminophenethyl)-2-methyl-4-phenyl-1-oxa-4,9-diazaspiro[5.5]undecan-3-one] returned a Ki below 100 nM.

Still in this assay, the particulars now being: combined class from Ki-σ1 (human σ1 receptor, A1) and Ki-μ (human μ-opioid receptor, A2) radioligand binding.
Take `CC1OC2(CCN(CCc3ccccc3)CC2)CN(c2cnn(C)c2)C1=O` (stereo not drawn) [Example 210, 2-methyl-4-(1-methyl-1H-pyrazol-4-yl)-9-phenethyl-1-oxa-4,9-diazaspiro[5.5]undecan-3-one]: the “μ and σ1 dual binding” value is given as “++”.

Still in this assay, the particulars now being: read-out: μ and σ1 dual binding.
As for `CC1OC2(CCN(CCc3ccccc3)CC2)CN(c2cnccn2)C1=O` (stereo not drawn) [Example 195, 2-methyl-9-phenethyl-4-(pyrazin-2-yl)-1-oxa-4,9-diazaspiro[5.5]undecan-3-one hydrochloride], the Ki is below 500 nM.

Regarding `CC1OC2(CCN(CCc3ccccc3)CC2)CN(c2cccc([N+](=O)[O-])c2)C1=O` (stereo not drawn) [Example 199, 2-methyl-4-(3-nitrophenyl)-9-phenethyl-1-oxa-4,9-diazaspiro[5.5]undecan-3-one], the Ki was above 500 nM.

`COc1ccccc1N1CC2(CCN(CCc3ccccc3)CC2)OC(C)C1=O` (stereo not drawn) [Example 206, 4-(2-methoxyphenyl)-2-methyl-9-phenethyl-1-oxa-4,9-diazaspiro[5.5]undecan-3-one hydrochloride]: the Ki was below 100 nM.

Turning to `CC1OC2(CCN(CCc3ccccc3)CC2)CN(c2cccc(C(F)(F)F)n2)C1=O` (stereo not drawn) [Example 207, 2-methyl-9-phenethyl-4-(6-(trifluoromethyl)pyridin-2-yl)-1-oxa-4,9-diazaspiro[5.5]undecan-3-one], the Ki was below 100 nM.

With `CC1OC2(CCN(CCc3ccccc3)CC2)CN(c2ncccc2F)C1=O` (stereo not drawn) [Example 208, 4-(3-fluoropyridin-2-yl)-2-methyl-9-phenethyl-1-oxa-4,9-diazaspiro[5.5]undecan-3-one], the Ki is below 100 nM.

Consider `CC1OC2(CCN(CCc3ccccc3)CC2)CN(c2nccs2)C1=O` (stereo not drawn) [Example 209, 2-methyl-9-phenethyl-4-(thiazol-2-yl)-1-oxa-4,9-diazaspiro[5.5]undecan-3-one hydrochloride], for which the Ki is below 500 nM.

For `CC1OC2(CCN(CCc3ccccc3)CC2)CN(c2ccc(C(F)(F)F)nc2)C1=O` (stereo not drawn) [Example 212, 2-methyl-9-phenethyl-4-(6-(trifluoromethyl)pyridin-3-yl)-1-oxa-4,9-diazaspiro[5.5]undecan-3-one hydrochloride], the Ki was above 500 nM.

As for `CC1OC2(CCN(CCc3ccccc3)CC2)CN(c2cnccc2C(F)(F)F)C1=O` (stereo not drawn) [Example 214, 2-methyl-9-phenethyl-4-(4-(trifluoromethyl)pyridin-3-yl)-1-oxa-4,9-diazaspiro[5.5]undecan-3-one hydrochloride], the Ki is below 100 nM.

Turning to `CC1OC2(CCN(CCc3ccccc3)CC2)CN(c2cccnc2C(F)(F)F)C1=O` (stereo not drawn) [Example 215, 2-methyl-9-phenethyl-4-(2-(trifluoromethyl)pyridin-3-yl)-1-oxa-4,9-diazaspiro[5.5]undecan-3-one hydrochloride], the Ki was below 500 nM.

Regarding `CC1OC2(CCN(CCc3ccccc3)CC2)CN(c2cncc(F)c2)C1=O` (stereo not drawn) [Example 216, 4-(5-fluoropyridin-3-yl)-2-methyl-9-phenethyl-1-oxa-4,9-diazaspiro[5.5]undecan-3-one hydrochloride], the Ki was below 500 nM.

For the compound `CC1OC2(CCN(CCc3ccccc3)CC2)CN(c2cncc(C(F)(F)F)c2)C1=O` (stereo not drawn) [Example 217, 2-methyl-9-phenethyl-4-(5-(trifluoromethyl)pyridin-3-yl)-1-oxa-4,9-diazaspiro[5.5]undecan-3-one hydrochloride], the Ki is below 500 nM.

With `CC1OC2(CCN(CCc3ccccc3)CC2)CN(c2ncccc2C(F)(F)F)C1=O` (stereo not drawn) [Example 218, 2-methyl-9-phenethyl-4-(3-(trifluoromethyl)pyridin-2-yl)-1-oxa-4,9-diazaspiro[5.5]undecan-3-one], the Ki was below 500 nM.

Turning to `O=C1N(c2cccnc2C(F)(F)F)CC2(CCN(CCc3ccccc3F)CC2)OC12CC2` [Example 219, 8-(2-fluorophenethyl)-12-(2-(trifluoromethyl)pyridin-3-yl)-4-oxa-8,12-diazadispiro[2.1.5.3]tridecan-13-one], the Ki was below 500 nM.

Turning to `O=C1N(c2ncccc2C(F)(F)F)CC2(CCN(CCc3ccccc3F)CC2)OC12CC2` [Example 220, 8-(2-fluorophenethyl)-12-(3-(trifluoromethyl)pyridin-2-yl)-4-oxa-8,12-diazadispiro[2.1.5.3]tridecan-13-one hydrochloride], the Ki is below 500 nM.

Turning to `CC1OC2(CCN(CCc3ccccc3F)CC2)CN(c2ncccc2C(F)(F)F)C1=O` (stereo not drawn) [Example 221, 9-(2-fluorophenethyl)-2-methyl-4-(3-(trifluoromethyl)pyridin-2-yl)-1-oxa-4,9-diazaspiro[5.5]undecan-3-one], the Ki was below 500 nM.

In the case of `C[C@H]1OC2(CCN(CCc3ccccc3F)CC2)CN(c2ncccc2C(F)(F)F)C1=O` [Example 222a, (R)-9-(2-fluorophenethyl)-2-methyl-4-(3-(trifluoromethyl)pyridin-2-yl)-1-oxa-4,9-diazaspiro[5.5]undecan-3-one], the Ki is below 500 nM.

For the compound `C[C@@H]1OC2(CCN(CCc3ccccc3F)CC2)CN(c2ncccc2C(F)(F)F)C1=O` [Example 222b, (S)-9-(2-fluorophenethyl)-2-methyl-4-(3-(trifluoromethyl)pyridin-2-yl)-1-oxa-4,9-diazaspiro[5.5]undecan-3-one], the Ki was above 500 nM.

In the case of `O=C1N(c2cnccc2C(F)(F)F)CC2(CCN(CCc3ccccc3F)CC2)OC12CC2` [Example 223, 8-(2-fluorophenethyl)-12-(4-(trifluoromethyl)pyridin-3-yl)-4-oxa-8,12-diazadispiro[2.1.5.3]tridecan-13-one hydrochloride], the Ki is below 100 nM.

Consider `O=C1N(c2ccccc2F)CC2(CCN(CCc3ccccc3)CC2)OC12CC2` [Example 224, 12-(2-fluorophenyl)-8-phenethyl-4-oxa-8,12-diazadispiro[2.1.5.3]tridecan-13-one], for which the Ki is below 100 nM.

For `O=C1N(c2ccccc2)CC2(CCN(CCc3ccccc3)CC2)OC12CC2` [Example 225, 8-phenethyl-12-phenyl-4-oxa-8,12-diazadispiro[2.1.5.3]tridecan-13-one], the Ki is below 100 nM.

`CC1OC2(CCN(CCc3cccc(N)c3)CC2)CN(c2ccccc2)C1=O` (stereo not drawn) [Example 226, 9-(3-aminophenethyl)-2-methyl-4-phenyl-1-oxa-4,9-diazaspiro[5.5]undecan-3-one]: the Ki is below 100 nM.

For `CC1OC2(CCN(CCc3ccccc3)CC2)CN(c2cccc(N)c2)C1=O` (stereo not drawn) [Example 227, 4-(3-aminophenyl)-2-methyl-9-phenethyl-1-oxa-4,9-diazaspiro[5.5]undecan-3-one], the Ki is above 500 nM.

These data come from US10703765B2 (priority 2014, dated 2020).
